Measured values: patent US20260199364A1, “USE OF A SYK INHIBITOR FOR THE TREATMENT OF SICKLE CELL DISEASE” (Rigel Pharmaceuticals, Inc., priority 2023, published 2026)
≈ marks a conversion by molar mass, not a printed value.

What was measured:
[1] = water solubility in aqueous buffer under physiological conditions; settings: for solubility: aqueous buffer
[2] = oral bioavailability of phosphate prodrug versus active drug; format: in vivo; settings: prodrug with progroup —CH2—O—P(O)(OH)2 compared with Compound 1

Row | solubility [1] | solubility relative to active drug (Compound 1) ([1]; aqueous buffer under physiological conditions, prodrug vs Compound 1) | oral bioavailability [2] | Structure (SMILES)
1 | > 5000 µg/mL | approximately 2000 times greater | increased dramatically | COc1cc(Nc2ncc(F)c(Nc3ccc4c(n3)N(COP(=O)(O)O)C(=O)C(C)(C)O4)n2)cc(OC)c1OC [Compound 4]
2 | 1 to 2 µg/mL (≈ 2.13 to 4.25 µM) | – | – | COc1cc(Nc2ncc(F)c(Nc3ccc4c(n3)NC(=O)C(C)(C)O4)n2)cc(OC)c1OC [Compound 1, N4-(2,2-Dimethyl-3-oxo-4H-5-pyrid[1,4]oxazin-6-yl)-5-fluoro-N2-(3,4,5-trimethoxyphenyl)-2,4-pyrimidinediamine]
